# Results taken from patent US11332476B2, “Fms-like tyrosine kinase inhibitors” (3SM BIOTRON INC., priority 2018, dated 2022).
# Target: T1, FLT3 (Homo sapiens, UniProt P36888)
# T1 sequence (P36888 27-993): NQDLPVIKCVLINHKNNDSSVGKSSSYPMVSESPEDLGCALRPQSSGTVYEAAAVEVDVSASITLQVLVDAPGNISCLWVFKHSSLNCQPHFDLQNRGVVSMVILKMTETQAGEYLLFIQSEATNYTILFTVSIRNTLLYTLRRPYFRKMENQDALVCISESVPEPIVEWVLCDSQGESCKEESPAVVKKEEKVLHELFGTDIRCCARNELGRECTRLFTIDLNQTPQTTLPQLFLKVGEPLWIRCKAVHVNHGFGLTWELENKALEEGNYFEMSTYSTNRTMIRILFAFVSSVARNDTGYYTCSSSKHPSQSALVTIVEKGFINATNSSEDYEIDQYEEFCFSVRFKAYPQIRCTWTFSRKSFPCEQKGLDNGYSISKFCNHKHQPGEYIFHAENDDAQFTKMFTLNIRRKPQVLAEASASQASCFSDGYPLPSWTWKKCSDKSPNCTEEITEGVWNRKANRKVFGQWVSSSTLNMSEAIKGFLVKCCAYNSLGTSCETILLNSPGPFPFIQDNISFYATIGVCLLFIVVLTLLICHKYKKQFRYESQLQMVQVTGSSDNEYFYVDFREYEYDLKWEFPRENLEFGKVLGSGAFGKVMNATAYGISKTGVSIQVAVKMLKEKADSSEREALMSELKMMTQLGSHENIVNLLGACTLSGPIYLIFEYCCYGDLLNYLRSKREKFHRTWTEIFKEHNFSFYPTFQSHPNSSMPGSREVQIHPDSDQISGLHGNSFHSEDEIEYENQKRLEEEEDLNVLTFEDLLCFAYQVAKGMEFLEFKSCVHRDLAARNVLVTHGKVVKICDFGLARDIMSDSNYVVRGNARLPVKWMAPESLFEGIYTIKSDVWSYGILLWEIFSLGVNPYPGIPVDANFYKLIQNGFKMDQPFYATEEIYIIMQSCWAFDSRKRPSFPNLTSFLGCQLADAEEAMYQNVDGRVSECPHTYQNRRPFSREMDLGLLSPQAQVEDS
# Assay: Inhibition of FLT3, 33P-ATP kinase assay with filter-binding detection
# Format: biochemical
# Settings: 33P-ATP 10 uM, 2 hours at room temperature, filter-binding method
# Method: Prepare indicated substrate in freshly prepared Base Reaction Buffer (20 mM Hepes (pH 7.5), 10 mM MgCl2, 1 mM EGTA, 0.02% Brij35, 0.02 mg/ml BSA, 0.1 mM Na3VO4, 2 mM DTT, 1% DMSO). Deliver any required cofactors to the substrate solution above. Deliver indicated kinase into the substrate solution and gently mix. The testing compounds in DMSO was added into the kinase reaction mixture by Acoustic technology (Echo550; nanoliter range) and incubated for 20 minutes at room temperature. Deliver 33P-ATP (specific activity […]) into the reaction mixture to initiate the reaction. Incubate kinase reaction for 2 hours at room temperature. Reactions are spotted onto P81 ion exchange paper. Detect kinase activity by filter-binding method.
# Inhibition of FLT3 with 4-Quinolone Derivatives
row,SMILES,IC50
1,"O=c1c2cc(Cl)ccc2sc2c(NCCCNCCO)nc3ccccc3c12 [compound 7701, 10-chloro-6-(3-(2-hydroxyethylamino)propylamino)-12H-thiochromeno[2,3-c]quinolin-12-one]",> 1000 nM
2,"CCCNc1nc2ccccc2c2c(=O)c3cc(Cl)ccc3sc12 [compound 7703, 10-chloro-6-(propylamino)-12H-thiochromeno[2,3-c]quinolin-12-one]",> 1000 nM
3,"NCCCNc1nc2ccccc2c2c(=O)c3cc(Cl)ccc3sc12 [compound 7704, 6-(3-aminopropylamino)-10-chloro-12H-thiochromeno[2,3-c]quinolin-12-one]",501 to 1000 nM
4,"CCCNc1nc2ccccc2c2c(=O)c3cc(F)ccc3sc12 [compound 7706, 10-fluoro-6-(propylamino)-12H-thiochromeno[2,3-c]quinolin-12-one]",> 1000 nM
5,"NCCCNc1nc2ccccc2c2c(=O)c3cc(F)ccc3sc12 [compound 7707, 6-(3-aminopropylamino)-10-fluoro-12H-thiochromeno[2,3-c]quinolin-12-one]",< 51 nM
6,"O=c1c2cc(F)ccc2sc2c(NCCCNCCO)nc3ccccc3c12 [compound 7708, 10-fluoro-6-(3-(2-hydroxyethylamino)propylamino)-12H-thiochromeno[2,3-c]quinolin-12-one]",201 to 500 nM
7,"NCCCNc1nc2ccccc2c2c(=O)c3cccc(Cl)c3sc12 [compound 7715, 6-(3-aminopropylamino)-8-chloro-12H-thiochromeno[2,3-c]quinolin-12-one]",< 51 nM
8,"O=c1c2cccc(Cl)c2sc2c(NCCCNCCO)nc3ccccc3c12 [compound 7716, 8-chloro-6-(3-(2-hydroxyethylamino)propylamino)-12H-thiochromeno[2,3-c]quinolin-12-one]",501 to 1000 nM
9,"O=c1c2cc(Cl)ccc2sc2c(NCCO)nc3ccccc3c12 [compound 7717, 10-chloro-6-(2-hydroxyethylamino)-12H-thiochromeno[2,3-c]quinolin-12-one]",> 1000 nM
10,"O=c1c2cc(Cl)ccc2sc2c(OCCO)nc3ccccc3c12 [compound 7718, 10-chloro-6-(2-hydroxyethoxy)-12H-thiochromeno[2,3-c]quinolin-12-one]",> 1000 nM
11,"O=c1c2cc(Cl)ccc2sc2c(NCCCO)nc3ccccc3c12 [compound 7719, 10-chloro-6-(3-hydroxypropylamino)-12H-thiochromeno[2,3-c]quinolin-12-one]",> 1000 nM
12,"CNCCCNc1nc2ccccc2c2c(=O)c3cc(Cl)ccc3sc12 [compound 7721, 10-chloro-6-(3-(methylamino)propylamino)-12H-thiochromeno[2,3-c]quinolin-12-one]",501 to 1000 nM
13,"CN(C)CCCNc1nc2ccccc2c2c(=O)c3cc(Cl)ccc3sc12 [compound 7722, 10-chloro-6-(3-(dimethylamino)propylamino)-12H-thiochromeno[2,3-c]quinolin-12-one]",> 1000 nM
14,"CCCNc1nc2ccccc2c2c(=O)c3ccc(Cl)cc3sc12 [compound 7725, 9-chloro-6-(propylamino)-12H-thiochromeno[2,3-c]quinolin-12-one]",> 1000 nM
15,"O=c1c2cc(F)ccc2sc2c(NCCCO)nc3ccccc3c12 [compound 7729, 10-fluoro-6-(3-hydroxypropylamino)-12H-thiochromeno[2,3-c]quinolin-12-one]",> 1000 nM
16,"CNCCCNc1nc2ccccc2c2c(=O)c3cc(F)ccc3sc12 [compound 7731, 10-fluoro-6-(3-(methylamino)propylamino)-12H-thiochromeno[2,3-c]quinolin-12-one]",201 to 500 nM
17,"CN(C)CCCNc1nc2ccccc2c2c(=O)c3cc(F)ccc3sc12 [compound 7732, 6-(3-(dimethylamino)propylamino)-10-fluoro-12H-thiochromeno[2,3-c]quinolin-12-one]",> 1000 nM
18,"O=c1c2cc(F)ccc2sc2c(N3CCNCC3)nc3ccccc3c12 [compound 7739, 10-fluoro-6-(piperazin-1-yl)-12H-thiochromeno[2,3-c]quinolin-12-one]",51 to 200 nM
19,"CN1CCN(c2nc3ccccc3c3c(=O)c4cc(F)ccc4sc23)CC1 [compound 7740, 10-fluoro-6-(4-methylpiperazin-1-yl)-12H-thiochromeno[2,3-c]quinolin-12-one]",501 to 1000 nM
20,"CN(C)CCNc1nc2ccccc2c2c(=O)c3cc(F)ccc3sc12 [compound 7744, 6-(2-(dimethylamino)ethylamino)-10-fluoro-12H-thiochromeno[2,3-c]quinolin-12-one]",201 to 500 nM
21,"O=c1c2cc(F)ccc2sc2c(N3CCCC3)nc3ccccc3c12 [compound 7747, 10-fluoro-6-(pyrrolidin-1-yl)-12H-thiochromeno[2,3-c]quinolin-12-one]",> 1000 nM

# The remaining lines, values ahead:
row,IC50,SMILES
1,> 1000 nM,"Nc1nc2ccccc2c2c(=O)c3cc(F)ccc3sc12 [compound 7705, 6-amino-10-fluoro-12H-thiochromeno[2,3-c]quinolin-12-one]"
2,> 1000 nM,"COc1ccc2sc3c(N)nc4ccccc4c3c(=O)c2c1 [compound 7709, 6-Amino-10-methoxy-12H-thiochromeno[2,3-c]quinolin-12-one]"
3,> 1000 nM,"CCCNc1nc2ccccc2c2c(=O)c3cc(OC)ccc3sc12 [compound 7710, 10-methoxy-6-(propylamino)-12H-thiochromeno[2,3-c]quinolin-12-one]"
4,51 to 200 nM,"COc1ccc2sc3c(NCCCN)nc4ccccc4c3c(=O)c2c1 [compound 7711, 6-(3-aminopropylamino)-10-methoxy-12H-thiochromeno[2,3-c]quinolin-12-one]"
5,501 to 1000 nM,"COc1ccc2sc3c(NCCCNCCO)nc4ccccc4c3c(=O)c2c1 [compound 7712, 6-(3-(2-hydroxyethylamino)propylamino)-10-methoxy-12H-thiochromeno[2,3-c]quinolin-12-one]"
6,> 1000 nM,"Nc1nc2ccccc2c2c(=O)c3cccc(Cl)c3sc12 [compound 7713, 6-Amino-8-chloro-12H-thiochromeno[2,3-c]quinolin-12-one]"
7,> 1000 nM,"Nc1nc2ccccc2c2c(=O)c3ccc(Cl)cc3sc12 [compound 7723, 6-Amino-9-chloro-12H-thiochromeno[2,3-c]quinolin-12-one]"
8,> 1000 nM,"Nc1nc2ccccc2c2c(=O)c3c(Cl)cccc3sc12 [compound 7724, 6-Amino-11-chloro-12H-thiochromeno[2,3-c]quinolin-12-one]"
9,> 1000 nM,"O=c1c2cc(F)ccc2sc2c(OCCO)nc3ccccc3c12 [compound 7728, 10-fluoro-6-(2-hydroxyethoxy)-12H-thiochromeno[2,3-c]quinolin-12-one]"
10,> 1000 nM,"COCCCNc1nc2ccccc2c2c(=O)c3cc(F)ccc3sc12 [compound 7730, 10-fluoro-6-(3-methoxypropylamino)-12H-thiochromeno[2,3-c]quinolin-12-one]"
11,> 1000 nM,"COc1ccc2sc3c(NCCO)nc4ccccc4c3c(=O)c2c1 [compound 7733, 6-(2-Hydroxyethylamino)-10-methoxy-12H-thiochromeno[2,3-c]quinolin-12-one]"
12,501 to 1000 nM,"CNCCCNc1nc2ccccc2c2c(=O)c3cc(OC)ccc3sc12 [compound 7734, 10-methoxy-6-(3-(methylamino)propylamino)-12H-thiochromeno[2,3-c]quinolin-12-one]"
13,> 1000 nM,"COc1ccc2sc3c(NCCCN(C)C)nc4ccccc4c3c(=O)c2c1 [compound 7735, 6-(3-(dimethylamino)propylamino)-10-methoxy-12H-thiochromeno[2,3-c]quinolin-12-one]"
14,> 1000 nM,"CCNc1nc2ccccc2c2c(=O)c3cc(Cl)ccc3sc12 [compound 7736, 10-chloro-6-(ethylamino)-12H-thiochromeno[2,3-c]quinolin-12-one]"
15,> 1000 nM,"COc1ccc2sc3c(NCCCO)nc4ccccc4c3c(=O)c2c1 [compound 7742, 10-methoxy-6-(3-hydroxypropylamino)-12H-thiochromeno[2,3-c]quinolin-12-one]"
16,> 1000 nM,"COCCCNc1nc2ccccc2c2c(=O)c3cc(OC)ccc3sc12 [compound 7743, 10-methoxy-6-(3-methoxypropylamino)-12H-thiochromeno[2,3-c]quinolin-12-one]"
17,> 1000 nM,"COCCNc1nc2ccccc2c2c(=O)c3cc(F)ccc3sc12 [compound 7745, 10-fluoro-6-(2-methoxyethylamino)-12H-thiochromeno[2,3-c]quinolin-12-one]"
